Measured values taken from patent publication US20250026759A1 (Merck Sharp & Dohme LLC, priority 2023, published 2025).

The molecules below were run on PBMCs infected with VSV-G pseudotyped HIV virus (VSV-G/pNLG1-P2A-ΔEnv) (assay: cells). Settings: Homo sapiens, PBMC, read-out: TACK EC50.
Assay type: cell-based, human

Question: Which EC50 does the source give for `O=C1Nc2cc(Cn3cn[nH]c3=O)c(F)cc2[C@@](C#CC2CC2)(C(F)(F)F)N1` [Example 34, (S)-4-(cyclopropylethynyl)-6-fluoro-7-((5-oxo-1,5-dihydro-4H-1,2,4-triazol-4-yl)methyl)-4-(trifluoromethyl)-3,4-dihydroquinazolin-2(1H)-one] here?
Answer: 44.6 nM

Question: For `CC(F)(F)[C@@]1(C#CC2CC2)NC(=O)Nc2cc(Cn3c(Cl)n[nH]c3=O)c(F)cc21` [Example 35, (S)-7-((3-chloro-5-oxo-1,5-dihydro-4H-1,2,4-triazol-4-yl)methyl)-4-(cyclopropylethynyl)-4-(1,1-difluoroethyl)-6-fluoro-3,4-dihydroquinazolin-2(1H)-one], which EC50 is on record?
Answer: 10.9 nM

Question: How did the EC50 turn out when `O=C1Nc2cc(Cn3c(Cl)n[nH]c3=O)c(F)cc2[C@@](C#CC2CC2)(C(F)(F)F)N1` [Example 36, (S)-7-((3-chloro-5-oxo-1,5-dihydro-4H-1,2,4-triazol-4-yl)methyl)-4-(cyclopropylethynyl)-6-fluoro-4-(trifluoromethyl)-3,4-dihydroquinazolin-2(1H)-one] was run?
Answer: 13.3 nM

Question: `O=C1Nc2cc(Cn3c(C4CC4)n[nH]c3=O)c(F)cc2[C@@](C#CC2CC2)(C(F)(F)F)N1` [Example 37, (S)-7-((3-cyclopropyl-5-oxo-1,5-dihydro-4H-1,2,4-triazol-4-yl)methyl)-4-(cyclopropylethynyl)-6-fluoro-4-(trifluoromethyl)-3,4-dihydroquinazolin-2(1H)-one] was tested. Which EC50 did it give?
Answer: 42.9 nM

Question: `Cc1n[nH]c(=O)n1Cc1cc2c(cc1F)[C@@](C#CC1CC1)(C(C)(F)F)NC(=O)N2` [Example 38, (S)-4-(cyclopropylethynyl)-4-(1,1-difluoroethyl)-6-fluoro-7-((3-methyl-5-oxo-1,5-dihydro-4H-1,2,4-triazol-4-yl)methyl)-3,4-dihydroquinazolin-2(1H)-one] was tested. Which EC50 did it give?
Answer: 23 nM

Question: Which EC50 does the source give for `O=C1Nc2cc(Cn3c(=O)[nH]c4cnccc43)c(F)cc2[C@@](C#CC2CC2)(C(F)(F)F)N1` [Example 39, (S)-4-(cyclopropylethynyl)-6-fluoro-7-((2-oxo-2,3-dihydro-1H-imidazo[4,5-c]pyridin-1-yl)methyl)-4-(trifluoromethyl)-3,4-dihydroquinazolin-2(1H)-one] here?
Answer: 13.7 nM

Question: `CC(F)(F)[C@@]1(C#CC2CC2)NC(=O)Nc2cc(Cn3ccc4c3C(=O)NC4)c(F)cc21` [Example 40, (S)-4-(cyclopropylethynyl)-4-(1,1-difluoroethyl)-6-fluoro-7-((6-oxo-5,6-dihydropyrrolo[3,4-b]pyrrol-1(4H)-yl)methyl)-3,4-dihydroquinazolin-2(1H)-one] was tested. Which EC50 did it give?
Answer: 5.9 nM

Question: How did the EC50 turn out when `O=C1Nc2cc(Cn3c(=O)[nH]c4ccncc43)c(F)cc2[C@@](C#CC2CC2)(C(F)(F)F)N1` [Example 41, (S)-4-(cyclopropylethynyl)-6-fluoro-7-((2-oxo-1,2-dihydro-3H-imidazo[4,5-c]pyridin-3-yl)methyl)-4-(trifluoromethyl)-3,4-dihydroquinazolin-2(1H)-one] was run?
Answer: 26.1 nM

Question: Which EC50 does the source give for `CN1C(=O)Nc2cc(CN3C(=O)CNC3=O)c(F)cc2[C@@]1(C#CC1CC1)C(F)(F)F` [Example 42, (S)-3-((4-(cyclopropylethynyl)-6-fluoro-3-methyl-2-oxo-4-(trifluoromethyl)-1,2,3,4-tetrahydroquinazolin-7-yl)methyl)imidazolidine-2,4-dione] here?
Answer: 38.8 nM

Question: `CC(F)(F)[C@@]1(C#CC2CC2)NC(=O)Nc2cc(Cn3ccc(N)n3)c(F)cc21` [Example 43, (S)-7-((3-amino-1H-pyrazol-1-yl)methyl)-4-(cyclopropylethynyl)-4-(1,1-difluoroethyl)-6-fluoro-3,4-dihydroquinazolin-2(1H)-one] was tested. Which EC50 did it give?
Answer: 8.5 nM

Question: For `Cc1cc(N)nn1Cc1cc2c(cc1F)[C@@](C#CC1CC1)(C(C)(F)F)NC(=O)N2` [Example 44, (S)-7-((3-amino-5-methyl-1H-pyrazol-1-yl)methyl)-4-(cyclopropylethynyl)-4-(1,1-difluoroethyl)-6-fluoro-3,4-dihydroquinazolin-2(1H)-one], which EC50 is on record?
Answer: 19.5 nM

Question: How did the EC50 turn out when `Cc1cn(Cc2cc3c(cc2F)[C@@](C#CC2CC2)(C(C)(F)F)NC(=O)N3)nc1N` [Example 45, (S)-7-((3-amino-4-methyl-1H-pyrazol-1-yl)methyl)-4-(cyclopropylethynyl)-4-(1,1-difluoroethyl)-6-fluoro-3,4-dihydroquinazolin-2(1H)-one] was run?
Answer: 13.1 nM

Question: Which EC50 does the source give for `Nc1ccn(Cc2cc3c(cc2F)[C@@](C#CC2CC2)(C(F)(F)C2CC2)NC(=O)N3)n1` [Example 46, (S)-7-((3-amino-1H-pyrazol-1-yl)methyl)-4-(cyclopropyldifluoromethyl)-4-(cyclopropylethynyl)-6-fluoro-3,4-dihydroquinazolin-2(1H)-one] here?
Answer: 26.7 nM

Question: Which EC50 does the source give for `CC(F)(F)[C@@]1(C#CC2CC2)NC(=O)Nc2cc(Cn3ccc(CCO)n3)c(F)cc21` [Example 47, (S)-4-(cyclopropylethynyl)-4-(1,1-difluoroethyl)-6-fluoro-7-((3-(2-hydroxyethyl)-1H-pyrazol-1-yl)methyl)-3,4-dihydroquinazolin-2(1H)-one] here?
Answer: 37.7 nM

Question: Which EC50 does the source give for `CC(F)(F)[C@@]1(C#CC2CC2)NC(=O)Nc2cc(Cn3ccc(CO)n3)c(Cl)cc21` [Example 48, (S)-6-chloro-4-(cyclopropylethynyl)-4-(1,1-difluoroethyl)-7-((3-(hydroxymethyl)-1H-pyrazol-1-yl)methyl)-3,4-dihydroquinazolin-2(1H)-one] here?
Answer: 29.6 nM

Question: Which EC50 does the source give for `CC(F)(F)[C@@]1(C#CC2CC2)NC(=O)Nc2cc(Cn3ccnc3CO)c(F)cc21` [Example 49, (S)-4-(cyclopropylethynyl)-4-(1,1-difluoroethyl)-6-fluoro-7-((2-(hydroxymethyl)-1H-imidazol-1-yl)methyl)-3,4-dihydroquinazolin-2(1H)-one] here?
Answer: 41.8 nM

Question: With `CC(F)(F)[C@@]1(C#CC2CC2)NC(=O)Nc2cc(Cn3ccc(-c4cc[nH]n4)n3)c(F)cc21` [Example 52, (S)-7-(1H,1′H-[3,3′-bipyrazol]-1-ylmethyl)-4-(cyclopropylethynyl)-4-(1,1-difluoroethyl)-6-fluoro-3,4-dihydroquinazolin-2(1H)-one] as the molecule, how does the EC50 read?
Answer: 28.3 nM

Question: `Cn1ccc(-c2ccn(Cc3cc4c(cc3F)[C@@](C#CC3CC3)(C(C)(F)F)NC(=O)N4)n2)n1` [Example 53, (S)-4-(cyclopropylethynyl)-4-(1,1-difluoroethyl)-6-fluoro-7-((1′-methyl-1H,1′H-[3,3′-bipyrazol]-1-yl)methyl)-3,4-dihydroquinazolin-2(1H)-one] was tested. Which EC50 did it give?
Answer: 28.3 nM

Question: Which EC50 does the source give for `COCc1ccn(Cc2cc3c(cc2F)[C@@](C#CC2CC2)(C(C)(F)F)NC(=O)N3)n1` [Example 54, (S)-4-(cyclopropylethynyl)-4-(1,1-difluoroethyl)-6-fluoro-7-((3-(methoxymethyl)-1H-pyrazol-1-yl)methyl)-3,4-dihydroquinazolin-2(1H)-one] here?
Answer: 33.5 nM

Question: For `CC(F)(F)[C@@]1(C#CC2CC2)NC(=O)Nc2cc(Cn3cccn3)c(F)cc21` [Example 55, (S)-7-((1H-pyrazol-1-yl)methyl)-4-(cyclopropylethynyl)-4-(1,1-difluoroethyl)-6-fluoro-3,4-dihydroquinazolin-2(1H)-one], which EC50 is on record?
Answer: 21.7 nM

Question: Which EC50 does the source give for `CC(F)(F)[C@@]1(C#CC2CC2)NC(=O)Nc2cc(Cn3ccnc3)c(F)cc21` [Example 56, (S)-7-((1H-imidazol-1-yl)methyl)-4-(cyclopropylethynyl)-4-(1,1-difluoroethyl)-6-fluoro-3,4-dihydroquinazolin-2(1H)-one] here?
Answer: 28 nM
